In brackets after ≈: the same amount, converted by molar mass. Several values for one entry are separate records, joined by “and”; a condition that tells them apart may be missing. Equal values may be shown once. Where a name gives a salt, the structure may show the parent alone. Read-outs that look alike come from different tables or passages of the source. A value given as a limit tells only on which side of the number the result lay.

Experiment [1] concerns basophil-like cells (RBL-2H3). Put plainly: β-hexosaminidase release inhibition test (degranulation of IgE-sensitised, DNP-BSA-stimulated cells). To be noted: for IC50: read-out: 50% β-hexosaminidase release inhibitory concentration (IC50). In kind it is cell-based. As for the experimental part:
In the Examples, the degree of cell degranulation was assessed through determination of β-hexosaminidase activity. In a specific procedure, basophil-like cells (RBL-2H3, Human Science Laboratory Resource Bank) were suspended in a Dulbecco's modified Eagle's medium (DMEM, product of Gibco) containing a 10% fetal calf serum, and the suspension was incubated overnight at 37° C. in a 96-well plate (2.5×10^5 cells/mL) in the presence of 0.1 μg/mL anti-dinitrophenyl (DNP)-IgE antibody (product of SIGMA).
The thus-treated basophil-like cells (RBL-2H3) were washed with phosphate buffer (PBS) and further incubated at 37° C. for 30 minutes in the presence of each test substance (Examples 1 to 6 and Comparative Examples 1 to 3) at a predetermined concentration. The concentrations at which incubation was performed were 0.1, 0.2, 0.3, 0.4, and 0.5 μM (ACNQ); 20, 30, 40, 60, and 80 μM (DHNA); 60, 70, 80, 90, and 100 μM (2-methyl-1,4-naphthoquinone (vitamin K3)); 10, 20, 30, 40, and 50 μM (4-amino-2-methyl-1-naphthol (vitamin K5)); 10, 20, 30, 40, and 50 μM (1,4-naphthoquinone); 3, 4, 5, 6, and 7 μM (2-amino-3-chloro-1,4-naphthoquinone); 50 and 100 μM (vitamin K1); 25, 50, and 100 μM (vitamin K2); and 50 and 100 μM (1,3-naphthalenediol).
The thus-incubated basophil-like cells (RBL-2H3) were washed with PBS, and further incubated at 37° C. for one hour in the presence of 1-μg/mL DNP-BSA (product of SSL). After completion of incubation, a supernatant was recovered from each well, and the activity of β-hexosaminidase contained in each supernatant was determined. The activity of β-hexosaminidase remaining in the cells was also determined through solubilizing the remaining cells with 0.1% polyoxyethylene(10)octylphenyl ether/DMEM.
Each of the thus-obtained supernatants and cell solubilized liquids was added to a 96-well plate (50 μL/well), and 2 mM p-nitrophenyl N-acetyl-β-D-glucosaminide (product of SIGMA) serving as a substrate was added thereto (50 μL/well). After incubation at 37° C. for two hours, a suppressor (1M Tris, pH: 9.0) was added thereto (150 μL/well), and the absorbance at 415 nm was measured by means of a plate reader. For assessing degranulation, percent β-hexosaminidase release (%) was calculated through the following formula: Percent β-hexosaminidase release (%)=100×(OD415 of supernatant)/(OD415 of supernatant+OD415 of solubilized cells).
The β-hexosaminidase activity of supernatant was determined as described above. The β-hexosaminidase activity of a supernatant of basophil-like cells (RBL-2H3) incubated in the presence of each of the test substances of Examples 1 to 6 and Comparative Examples 1 to 3) was measured, whereby 50% β-hexosaminidase release inhibitory concentration (IC50) was calculated.

Experiment [2] concerns basophil-like cells (RBL-2H3). To be noted: Non-Patent Document 2; cited from earlier work.
In experiment [3] the test system is PCA reaction. Put plainly: PCA reaction, Evans Blue leakage to ear auricles. The experiment is classed as in vivo. Particulars: ICR mice, 100 μg/kg perorally one hour before PCA induction, compared with CMC sodium-administered group, P<0.05 t-test (FIG. 3). As for the experimental part:
ICR mice (female, 6-week old) were preliminarily bred and grouped into the following three groups such that these groups had the same average body weight: Group 1, 0.5% carboxy-methyl-cellulose (CMC) sodium-administered group (Comparative Example 4); Group 2, ACNQ (100 μg/kg)-administered group (Example 7); and Group 3, PCA-non-induced group (Comparative Example 5). Groups 1 and 2 each included 8 mice, and Group 3 included 4 mice. Group 1 (CMC sodium-administered group) served as a control group with respect to Group 2 (ACNQ-administered group).
To each of the ICR mice of Groups 1 and 2, an anti-DNP-IgE antibody (100 ng/body) was intradermally administered through an ear auricle. Instead of the anti-DNP-IgE antibody, physiological saline was administered in a similar manner to each of the ICR mice of Group 3. […]
Subsequently, one hour after administration of each test substance, DNP-bound BSA (0.25 mg/body) serving as an antigen and Evans Blue were intravenously administered to each of the ICR mice of Groups 1 to 3, to thereby induce PCA. […] The absorbance of each extract at 620 nm was determined, to thereby calculate the Evans Blue level leaked to the ear auricle.

The mark [4] stands for this setting: Rattus norvegicus, RBL-2H3, 0.5 h, RBL-2H3, 30 minutes incubation with test substance, DNP-BSA stimulation.
Setting [5] is: Rattus norvegicus, RBL-2H3, 0.5 h, RBL-2H3, same IC50 expressed in μg/mL.
The mark [6] stands for this setting: Rattus norvegicus, RBL-2H3, RBL-2H3, same IC50 expressed in μg/mL.
The mark [7] stands for this setting: RBL-2H3, 30 minutes incubation with test substance, DNP-BSA stimulation.
Where [8] appears, read: RBL-2H3, same IC50 expressed in μg/mL.

As for `Oc1cc(O)c2ccccc2c1` [1,3-Naphthalenediol, 1,3-naphthalenediol, reference compound], in experiment [1] (Rattus norvegicus, RBL-2H3, 0.5 h), the IC50 is > 100 µM and > 16 µg/mL.

As to `O=C(O)c1cc(O)c2ccccc2c1O` [DHNA, 1,4-dihydroxy-2-naphthoic acid], in experiment [1] (DHNA concentration ≧60 μM (FIG. 2)), the “percent β-hexosaminidase release, relative to that of sample containing no test substance (0 μM)” value is reported as “about 20%”. Also, the IC50 was around 50 µM in experiment [1] (setting [4]), 8.2 µg/mL in experiment [1] (setting [5]) and 8.2 µg/mL in experiment [1] (setting [6]).

Regarding `CN1CCC(=C2c3ccccc3CC(=O)c3sccc32)CC1` [ketotifen fumarate, 4-(1-methyl-4-piperidylidene-4H-benzo[4,5]-cyclohepta[1,2-b]-thiophen-10(9H)-one hydrogen fumarate], in experiment [2], the IC50 is 214 µM and the “IC50 to basophil-like cells (RBL-2H3)” value is 91 µg/mL.

Regarding “menaquinone [Vitamin K2, reference compound]”, in experiment [1] (setting [7]), the IC50 is above 100 µM. Also, the “50% β-hexosaminidase release inhibitory concentration (IC50)” value in experiment [1] (setting [8]) was “(>44 μg/mL)”.

On to `CC1=CC(=O)c2ccccc2C1=O` [Vitamin K3, 2-methyl-1,4-naphthoquinone], for which the IC50 was around 50 µM in experiment [1] (setting [4]), 11.5 µg/mL in experiment [1] (setting [5]) and 11.5 µg/mL in experiment [1] (setting [6]).

As for `O=C1C=CC(=O)c2ccccc21` [1,4-Naphthoquione, 1,4-naphthoquinone], the values for the IC50 in experiment [1] (setting [4]), in experiment [1] (setting [5]) and in experiment [1] (setting [6]) were around 30 µM, 4.7 µg/mL and 4.7 µg/mL, respectively.

Regarding `NC1=C(Cl)C(=O)c2ccccc2C1=O` [2-Amino-3-chloro-1,4-naphthoquinone, 2-amino-3-chloro-1,4-naphthoquinone], the results for the IC50 in experiment [1] (setting [4]), in experiment [1] (setting [5]) and in experiment [1] (setting [6]) were 6.8 µM, 1.4 µg/mL and 1.4 µg/mL, respectively.

On to `CC1=C(C/C=C(\C)CCC[C@H](C)CCC[C@H](C)CCCC(C)C)C(=O)c2ccccc2C1=O` [Vitamin K1, phylloquione, reference compound], for which, in experiment [1] (setting [7]), the IC50 is above 100 µM. Further, the “50% β-hexosaminidase release inhibitory concentration (IC50)” value in experiment [1] (setting [8]) is given as “(>45.1 μg/mL)”.

Consider `Cc1cc(N)c2ccccc2c1O` [Vitamin K5, 4-amino-2-methyl-1-naphthol], for which the figures for the IC50 in experiment [1] (setting [4]), in experiment [1] (setting [5]) and in experiment [1] (setting [6]) were around 30 µM, 6.1 µg/mL and 6.1 µg/mL, respectively.

Consider `COc1ccc(C=CC(=O)Nc2ccccc2C(=O)O)cc1OC` [tranilast, N-(3,4-dimethoxycinnamoyl)anthranilic acid], for which, in experiment [2], the IC50 was 492 µM and the “IC50 to basophil-like cells (RBL-2H3)” value was 161 µg/mL (≈ 492 µM).

For the molecule `NC1=C(C(=O)O)C(=O)c2ccccc2C1=O` [ACNQ, 2-amino-3-carboxy-1,4-naphthoquinone], the “Evans Blue level leaked to the ear auricle” value in experiment [3] is recorded as “significantly lowered”. For the same molecule, the “percent β-hexosaminidase release, relative to that of sample containing no test substance (0 μM)” value in experiment [1] (ACNQ concentration ≧0.4 μM (FIG. 1)) was “about 20%”. Also, the results for the IC50 in experiment [1] (setting [4]), in experiment [1] (setting [5]) and in experiment [1] (setting [6]) were 0.25 µM, 0.0545 µg/mL and 0.0545 µg/mL, respectively.

The values are drawn from patent publication US8093301B2, “Anti-allergic agent” (Meiji Co., Ltd., priority 2005, dated 2012).
